pIC50: −log10 of the molar value.
Key:
human A2B receptors = human A2B receptors (Homo sapiens (Human), UniProt P29275); experiment: A2B antagonism in cAMP cell-based assay (LANCE cAMP, HEK293); settings: HEK293 cells expressing human A2B receptor
Protocol: (§1) Measurement of A2A and A2B Antagonism in cAMP Cell-Based Assay
(§2) The ability of compounds to antagonize human A2A and A2B adenosine receptors was determined using a kit to measure changes in intracellular cyclic AMP levels (LANCE cAMP 384 Kit, Perkin Elmer, Cat. No. AD0264). HEK293 cells recombinantly expressing either human A2A or A2B receptors, previously frozen in Recovery Medium (Life Technologies, Cat. No. 12648-010) were thawed and diluted into stimulation buffer (HBSS (Hyclone SH 30268.01), 5 mM HEPES (Gibco 15630-106), 200 nM rolipram (Tocris, Cat. No. 0905), and 1.5% (V/v) BSA stabilizer (kit component). The cell suspension was centrifuged at 200×g for 10 min and then resuspended in stimulation buffer, supplemented with a 1:10 000 dilution of Alexa Fluor 647 anti-cAMP antibody, to a density of 6.0×10^5 cells/mL. A Labcyte Echo 550 acoustic dispenser was used to transfer up to 25 nL of test compound dissolved in DMSO into the wells of a dry Optiplate-384 plate (Perkin Elmer, Cat. No. 6008289). All subsequent liquid additions were performed using a multichannel pipettor. Next, 5 μL of the cell suspension was added to the wells of the Optiplate-384 and incubated for 30 min. at 37° C. and 5% CO2 in a humidified environment. After this time 5 μL of either 300 nM or 600 nM adenosine (Sigma Cat. No. A9251) for A2A and A2B respectively was added and incubated for 30 minutes at 37° C. and 5% CO2 in a humidified environment. At this time detection mix was prepared by combining the LANCE Eu-W8044 labeled streptavidin and Biotin-cAMP in detection buffer according to the manufacturers protocol. 10 μL of the detection mix was added to each well of the Optiplate-384 which was covered with a plate seal and incubated under ambient conditions for 2 hours prior to reading the plate using an Envision (Perkin Elmer, Waltham, Mass.) multimode plate reader. Data was normalized by defining minimal effect as stimulation in the presence of 0.25% (v/v) DMSO and maximal effect as stimulation in the presence of 1 μM ZM241385 (Cayman, Cat. No. 1036). Curve fitting of the percent effect data versus the log of compound concentration used a 4-parameter concentration response curve fitting algorithm to calculate IC50 values. Compound concentrations tested were 10,000, 3,333, 1,111, 370.4, 123.4, 41.2, 13.7, 4.6, 1.5 and 0.5 nM with 0.25% residual DMSO.

human A2A receptors = human A2A receptors (Homo sapiens (Human), UniProt P29274); experiment: A2A antagonism in cAMP cell-based assay (LANCE cAMP, HEK293); settings: HEK293 cells expressing human A2A receptor
human A2A receptors, sequence (P29274 whole entry): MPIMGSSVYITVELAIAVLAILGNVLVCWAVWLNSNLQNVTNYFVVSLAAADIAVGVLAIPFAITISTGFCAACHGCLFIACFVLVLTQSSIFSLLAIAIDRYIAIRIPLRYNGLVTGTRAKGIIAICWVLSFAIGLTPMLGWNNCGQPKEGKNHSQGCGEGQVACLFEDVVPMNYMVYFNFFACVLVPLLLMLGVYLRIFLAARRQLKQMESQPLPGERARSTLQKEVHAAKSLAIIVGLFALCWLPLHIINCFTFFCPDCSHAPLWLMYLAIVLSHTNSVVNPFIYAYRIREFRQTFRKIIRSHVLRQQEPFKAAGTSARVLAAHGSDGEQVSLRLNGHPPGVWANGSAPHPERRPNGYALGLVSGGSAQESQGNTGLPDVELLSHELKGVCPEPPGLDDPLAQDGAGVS
Protocol: as §1, §2

human A2B receptors, sequence (P29275 whole entry): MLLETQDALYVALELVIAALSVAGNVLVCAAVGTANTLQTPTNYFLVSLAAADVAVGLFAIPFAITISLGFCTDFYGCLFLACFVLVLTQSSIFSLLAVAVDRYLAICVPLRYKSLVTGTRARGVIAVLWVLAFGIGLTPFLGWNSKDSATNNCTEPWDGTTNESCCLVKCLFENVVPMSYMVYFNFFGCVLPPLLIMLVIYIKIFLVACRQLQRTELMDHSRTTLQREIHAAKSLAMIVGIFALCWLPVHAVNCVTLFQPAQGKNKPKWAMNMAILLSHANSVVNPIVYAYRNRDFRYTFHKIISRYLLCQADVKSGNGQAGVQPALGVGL

| Compound | pIC50 (human A2B receptors) | pIC50 (human A2A receptors) |
| --- | --- | --- |
| CCC(C)(O)Cn1cc(N2CCC[C@@H](c3nc4c5cc(F)c(OC)cc5nc(N)n4n3)C2)cn1 (single isomer, unassigned) [Example 184, (S or R)-1-(4-((R)-3-(5-amino-9-fluoro-8-methoxy-[1,2,4]triazolo[1,5-c]quinazolin-2-yl)piperidin-1-yl)-1H-pyrazol-1-yl)-2-methylbutan-2-ol] | 6.46 | 8.31 |
| COc1cc(F)cc2c1nc(N)n1nc([C@@H]3CCCN(c4cnn(C(C)C(C)O)c4)C3)nc21 (single isomer, unassigned) [Example 185, (2S,3S or 2R,3R)-3-(4-((R)-3-(5-amino-9-fluoro-7-methoxy-[1,2,4]triazolo[1,5-c]quinazolin-2-yl)piperidin-1-yl)-1H-pyrazol-1-yl)butan-2-ol] | 7.30 | 8.96 |
| COc1cc(F)cc2c1nc(N)n1nc([C@@H]3CCCN(c4cnn(C(C)C(C)O)c4)C3)nc21 (single isomer, unassigned) [Example 186, (2R,3R or 2S,3S)-3-(4-((R)-3-(5-amino-9-fluoro-7-methoxy-[1,2,4]triazolo[1,5-c]quinazolin-2-yl)piperidin-1-yl)-1H-pyrazol-1-yl)butan-2-ol] | 7.59 | 9.00 |
| COc1cc2nc(N)n3nc([C@@H]4CCCN(c5cnn(C(C)C(C)O)c5)C4)nc3c2cc1F (single isomer, unassigned) [Example 187, (2S,3S or 2R,3R)-3-(4-((R)-3-(5-amino-9-fluoro-8-methoxy-[1,2,4]triazolo[1,5-c]quinazolin-2-yl)piperidin-1-yl)-1H-pyrazol-1-yl)butan-2-ol] | 7.02 | 8.59 |
| COc1cc2nc(N)n3nc([C@@H]4CCCN(c5cnn(C(C)C(C)O)c5)C4)nc3c2cc1F (single isomer, unassigned) [Example 188, (2R,3R or 2S,3S)-3-(4-((R)-3-(5-amino-9-fluoro-8-methoxy-[1,2,4]triazolo[1,5-c]quinazolin-2-yl)piperidin-1-yl)-1H-pyrazol-1-yl)butan-2-ol] | 7.27 | 8.82 |
| COc1cc(F)cc2c1nc(N)n1nc([C@@H]3CCCN(c4cn(C(C)C(C)O)nc4C)C3)nc21 (single isomer, unassigned) [Example 189, (2S,3S or 2R,3R)-3-(4-((R)-3-(5-amino-9-fluoro-7-methoxy-[1,2,4]triazolo[1,5-c]quinazolin-2-yl)piperidin-1-yl)-3-methyl-1H-pyrazol-1-yl)butan-2-ol] | 7.27 | 9.30 |
| COc1cc(F)cc2c1nc(N)n1nc([C@@H]3CCCN(c4cn(C(C)C(C)O)nc4C)C3)nc21 (single isomer, unassigned) [Example 190] | 7.25 | 9.10 |
| Cc1nn(C(C)C(C)O)cc1N1CCC[C@@H](c2nc3c4cc(F)cc(F)c4nc(N)n3n2)C1 (single isomer, unassigned) [Example 191, (2S,3S or 2R,3R)-3-(4-((R)-3-(5-amino-7,9-difluoro-[1,2,4]triazolo[1,5-c]quinazolin-2-yl)piperidin-1-yl)-3-methyl-1H-pyrazol-1-yl)butan-2-ol] | 7.03 | 9.05 |
| Cc1nn(C(C)C(C)O)cc1N1CCC[C@@H](c2nc3c4cc(F)cc(F)c4nc(N)n3n2)C1 (single isomer, unassigned) [Example 192, (2R,3R or 2S,3S)-3-(4-((R)-3-(5-amino-7,9-difluoro-[1,2,4]triazolo[1,5-c]quinazolin-2-yl)piperidin-1-yl)-3-methyl-1H-pyrazol-1-yl)butan-2-ol] | 7.14 | 9.10 |
| COc1cc(F)cc2c1nc(N)n1nc([C@@H]3CCCN(c4cnn(C(C)C(C)O)c4C)C3)nc21 (single isomer, unassigned) [Example 193, (2S,3S or 2R,3R)-3-(4-((R)-3-(5-amino-9-fluoro-7-methoxy-[1,2,4]triazolo[1,5-c]quinazolin-2-yl)piperidin-1-yl)-5-methyl-1H-pyrazol-1-yl)butan-2-ol] | 6.60 | 8.89 |
| COc1cc(F)cc2c1nc(N)n1nc([C@@H]3CCCN(c4cnn(C(C)C(C)O)c4C)C3)nc21 (single isomer, unassigned) [Example 194, (2R,3R or 2S,3S)-3-(4-((R)-3-(5-amino-9-fluoro-7-methoxy-[1,2,4]triazolo[1,5-c]quinazolin-2-yl)piperidin-1-yl)-5-methyl-1H-pyrazol-1-yl)butan-2-ol] | 6.50 | 8.77 |
| COc1cc2nc(N)n3nc([C@@H]4CCCN(c5cnn(C(C)C(C)O)c5C)C4)nc3c2cc1F (single isomer, unassigned) [Example 195, (2S,3S or 2R,3R)-3-(4-((R)-3-(5-amino-9-fluoro-8-methoxy-[1,2,4]triazolo[1,5-c]quinazolin-2-yl)piperidin-1-yl)-5-methyl-1H-pyrazol-1-yl)butan-2-ol] | 6.41 | 8.47 |
| COc1cc2nc(N)n3nc([C@@H]4CCCN(c5cnn(C(C)C(C)O)c5C)C4)nc3c2cc1F (single isomer, unassigned) [Example 196, (2R,3R or 2S,3S)-3-(4-((R)-3-(5-amino-9-fluoro-8-methoxy-[1,2,4]triazolo[1,5-c]quinazolin-2-yl)piperidin-1-yl)-5-methyl-1H-pyrazol-1-yl)butan-2-ol] | 6.32 | 8.43 |
| CC(O)C(C)n1cc(N2CCC[C@@H](c3nc4c5cc(F)cc(F)c5nc(N)n4n3)C2)cn1 (single isomer, unassigned) [Example 197, (2S,3S or 2R,3R)-3-(4-((R)-3-(5-amino-7,9-difluoro-[1,2,4]triazolo[1,5-c]quinazolin-2-yl)piperidin-1-yl)-1H-pyrazol-1-yl)butan-2-ol] | 7.03 | 8.19 |
| CC(O)C(C)n1cc(N2CCC[C@@H](c3nc4c5cc(F)cc(F)c5nc(N)n4n3)C2)cn1 (single isomer, unassigned) [Example 198, (2R,3R or 2S,3S)-3-(4-((R)-3-(5-amino-7,9-difluoro-[1,2,4]triazolo[1,5-c]quinazolin-2-yl)piperidin-1-yl)-1H-pyrazol-1-yl)butan-2-ol] | 7.28 | 8.37 |
| COc1cc2nc(N)n3nc([C@@H]4CCCN(c5cnn(C(C)C(C)O)c5)C4)nc3c2cc1F (single isomer, unassigned) [Example 199, (2R,3S or 2S,3R)-3-(4-((R)-3-(5-amino-9-fluoro-8-methoxy-[1,2,4]triazolo[1,5-c]quinazolin-2-yl)piperidin-1-yl)-1H-pyrazol-1-yl)butan-2-ol] | 7.01 | 8.60 |
| COc1cc2nc(N)n3nc([C@@H]4CCCN(c5cnn(C(C)C(C)O)c5)C4)nc3c2cc1F (single isomer, unassigned) [Example 200, (2S,3R or 2R,3S)-3-(4-((R)-3-(5-amino-9-fluoro-8-methoxy-[1,2,4]triazolo[1,5-c]quinazolin-2-yl)piperidin-1-yl)-1H-pyrazol-1-yl)butan-2-ol] | 6.99 | 8.60 |
| COc1cc(F)cc2c1nc(N)n1nc([C@@H]3CCCN(c4cnn(C(C)C(C)O)c4)C3)nc21 (single isomer, unassigned) [Example 201, (2R,3S or 2S,3R)-3-(4-((R)-3-(5-amino-9-fluoro-7-methoxy-[1,2,4]triazolo[1,5-c]quinazolin-2-yl)piperidin-1-yl)-1H-pyrazol-1-yl)butan-2-ol] | 7.42 | 8.72 |
| COc1cc(F)cc2c1nc(N)n1nc([C@@H]3CCCN(c4cnn(C(C)C(C)O)c4)C3)nc21 (single isomer, unassigned) [Example 202, (2S,3R or 2R,3S)-3-(4-((R)-3-(5-amino-9-fluoro-7-methoxy-[1,2,4]triazolo[1,5-c]quinazolin-2-yl)piperidin-1-yl)-1H-pyrazol-1-yl)butan-2-ol] | 7.20 | 8.85 |
| CC(O)C(C)n1cc(N2CCC[C@@H](c3nc4c5cc(F)cc(F)c5nc(N)n4n3)C2)cn1 (single isomer, unassigned) [Example 203, (2R,3S or 2S,3R)-3-(4-((R)-3-(5-amino-7,9-difluoro-[1,2,4]triazolo[1,5-c]quinazolin-2-yl)piperidin-1-yl)-1H-pyrazol-1-yl)butan-2-ol] | 7.27 | 8.11 |
